Laboratory results as given in patent US20240109924A1, “IP4-4,6 SUBSTITUTED DERIVATIVE COMPOUNDS” (SANIFIT THERAPEUTICS, S.A., priority 2021, published 2024).
One block for each compound: values may come before it.

Assays:
[1] = In vitro inhibition of calcium phosphate crystallization in human plasma (spectrophotometric assay); type: biochemical; settings: 0-100 μM, 1.5 mM phosphate, 12.5 mM calcium, pH 7.4, absorbance 550 nm, slope 6-24 min, read-out: Relative Potency
Method: The in vitro efficacy of the IP4-4,6 substituted derivatives (e.g., Compounds 1 to 53) of the invention on the inhibition of calcium phosphate crystallization in human plasma samples was evaluated according to a spectrophotometric assay previously described in the art (Ferrer M, et al., Sci Rep 2017; 7:6858, doi:10.1038/s41598-017-07203-x).
A 96-well plate was employed. Plasma was spiked (1 volume of the IP4-4,6 substituted derivatives of the invention per 19 volumes of plasma) with increasing concentrations of the derivatives in the range of 0-100 μM. Plasma was then centrifuged at 10,000 g at rt and subsequently mixed with a mixture of 5 mM hydrogen phosphate and 41.67 mM calcium to attain final concentrations of 1.5 mM phosphate and 12.5 mM calcium, respectively. All reagent solutions were filtered, and pH adjusted to 7.4.
Crystallization of calcium phosphate was monitored spectrophotometrically for 30 min at rt by measuring the increments in absorbance at 550 nm using the Biotek Powerwave XS Microplate spectrophotometer (BioTek Instruments, Inc., Winooski, VT, US). The plate was incubated at rt in an orbital shaker and absorbance measured every 3 min.
Plasma crystallization was assessed based on slope measurement in the linear range between 6 and 24 min from plots of increase in absorbance versus logarithm of time. The efficacy of different myo-inositol phosphates derivatives in preventing in vitro formation of calcium phosphate crystals was assessed in human plasma samples using the slopes obtained between 6- and 24-min. Inhibition of crystallization was measured by comparing the slopes of the control sample (blank plasma) with those of samples containing the inhibitor as shown below: […]

[2] = test system: blood perfusion; assay: In vivo blood perfusion (laser doppler perfusion imaging) in vitamin D3-induced limb ischemia rat model; settings: average blood perfusion recovery vs vehicle and sham (sham 100%), SD rats, 30 mg/kg s.c. daily D1-D5
Method: (§1) The effects of compounds 1, 6, 9, 14, 18, 31, and 39 over blood perfusion and tissue calcification after the inception of limb ischemia were tested using a rat model for a duration of 5 days. Limb ischemia was induced to all groups from D1 to D3 excepting the sham group, to which no ischemia was induced. The animals were administered placebo and active agent formulations from D1 to D5. Observations were taken at several points during the treatment from D0 to D5. All animals were weighed every day before treatment. Seventy-two male Sprague Dawley (SD) rats (Envigo Corp., Huntingdon, GB) weighing approximately 150-200 g were used. The rats were fed with a […]® Rod14-H diet ([…] GmbH, Soest, DE). The rats were divided in 9 groups, 8 animals per group, as follows: • Group 1-Control (Sham) • Group 2-Physiological saline solution • Group 3-Compound 1 • Group 4-Compound 6 • Group 5-Compound 9 • Group 6-Compound 14 • Group 7-Compound 18 • Group 8-Compound 31 • Group 9-Compound 39 Limb ischemia was induced in the rats of groups 2-9 by subcutaneous administration of 150,000 IU/kg vitamin D3 (cholecalciferol, Duphafral D3 1000; Zoetis Inc., Parsippany, NJ, US) in physiological saline solution (2 mL/kg) every day during D1 to D3. The rats of group 1 were not administered vitamin D3. The rats in groups 1 and 2 were administered 2 mL/kg of physiological saline solution daily from D1 to D5 via subcutaneous route. The animals in groups 3-9 were administered subcutaneously 30 mg/kg of compounds 1, 6, 9, 14, 18, 31, and 39, respectively, in physiological saline solution (2 mL/kg), every day from D1 to D5. Limb functional and ischemia status were evaluated by using a laser doppler perfusion imaging apparatus PeriCam PSI Normal Resolution (Perimed AB, Järfälla, SE) in all groups at D0 and D5. The perfusion difference and perfusion ratio were calculated by comparing the baseline and either D0 or D5 readings for each group. In addition, the blood perfusion ratio of each treatment group (i.e., groups 2 to 9) to sham group was also calculated. All rats of groups 1-9 were sacrificed on D5 30 minutes after dosing for determining their Ca baseline values. The animals were anesthetized by isoflurane inhalation. The whole aorta, carotids, femoral arteries, heart, and right kidney of the subjects were collected for calcium content measurement. The tissues were lyophilized for 48-72 h and weighed. The lyophilized tissues were then digested using a 1:1 HNO3:HClO4 mixture in a dry bath incubator for 2-4 h at 180° C. The digested tissues were subsequently diluted using ultra-pure MilliQ® water (MilliporeSigma (Merck KGaA), Burlington, MA, US) to a final volume of 5 mL (i.e., for femoral arteries and carotids) of 10 mL (i.e., for heart, kidneys, and aorta). Calcium content was quantified via inductively coupled plasma optical emission spectrometry (ICP-OES) using an Optima 7300 DV ICP-OES System spectrometer (PerkinElmer, Inc., Waltham, MA, US) according to the manufacturer's instructions. Average blood perfusion recovery compared to vehicle and sham were also calculated. Recovery for sham was 100%. Blood perfusion recovery calculated was using the following equation: 100-((BP sham-BP new drug)/(BP sham-BP vehicle)*100).

[3] = test system: tissue calcification; assay: In vivo tissue calcification (calcium content by ICP-OES) in vitamin D3-induced limb ischemia rat model; settings: SD rats, vitamin D3 150,000 IU/kg s.c. D1-D3, 30 mg/kg s.c. daily D1-D5, sacrifice D5; for Inhibition of calcification (%) Femoral: femoral arteries; for Inhibition of calcification (%) Kidney: right kidney
Method: as §1, with “D5.” for “D5. Limb functional and ischemia status were evaluated by using a laser doppler perfusion imaging apparatus PeriCam PSI Normal Resolution (Perimed AB, Järfälla, SE) in all groups at D0 and D5. The perfusion difference and perfusion ratio were calculated by comparing the baseline and either D0 or D5 readings for each group. In addition, the blood perfusion ratio of each treatment group (i.e., groups 2 to 9) to sham group was also calculated.”

EC50 [1]: ≤ 5 µM
Compound: COCCCCCO[C@@H]1[C@@H](OP(=O)([O-])[O-])[C@H](OCCCCCOC)[C@@H](OP(=O)([O-])[O-])[C@@H](OP(=O)([O-])[O-])[C@H]1OP(=O)([O-])[O-].[Na+].[Na+].[Na+].[Na+].[Na+].[Na+].[Na+].[Na+] [Compound 9, 4,6-O-bis(5-methoxypentyl)-myo-inositol-1,2,3,5-tetrakis(phosphate) octasodium salt]
BP recovery (%) [2]: Over (Average blood perfusion recovery over or under 25%.) | Inhibition of calcification (%) Aorta [3]: Under (Average inhibition percentage over or under 25% inhibition of calcification.) | Inhibition of calcification (%) Carotid [3]: Under (Average inhibition percentage over or under 25% inhibition of calcification.) | Inhibition of calcification (%) Femoral [3]: Over (Average inhibition percentage over or under 25% inhibition of calcification.) | Inhibition of calcification (%) Heart [3]: Over (Average inhibition percentage over or under 25% inhibition of calcification.) | Inhibition of calcification (%) Kidney [3]: Over (Average inhibition percentage over or under 25% inhibition of calcification.)

EC50 [1]: ≤ 5 µM
Compound: CCCCCO[C@@H]1[C@@H](OP(=O)([O-])[O-])[C@H](OCCCCC)[C@@H](OP(=O)([O-])[O-])[C@@H](OP(=O)([O-])[O-])[C@H]1OP(=O)([O-])[O-].[Na+].[Na+].[Na+].[Na+].[Na+].[Na+].[Na+].[Na+] [Compound 1, 4,6-O-dipentyl-myo-inositol-1,2,3,5-tetrakis(phosphate) octasodium salt]
BP recovery (%) [2]: Under (Average blood perfusion recovery over or under 25%.) | Inhibition of calcification (%) Aorta [3]: Over (Average inhibition percentage over or under 25% inhibition of calcification.) | Inhibition of calcification (%) Carotid [3]: Under (Average inhibition percentage over or under 25% inhibition of calcification.) | Inhibition of calcification (%) Femoral [3]: Over (Average inhibition percentage over or under 25% inhibition of calcification.) | Inhibition of calcification (%) Heart [3]: Over (Average inhibition percentage over or under 25% inhibition of calcification.) | Inhibition of calcification (%) Kidney [3]: Over (Average inhibition percentage over or under 25% inhibition of calcification.)

EC50 [1]: ≤ 5 µM
Compound: O=P([O-])([O-])O[C@@H]1[C@@H](OCCCCCO)[C@H](OP(=O)([O-])[O-])[C@H](OP(=O)([O-])[O-])[C@H](OP(=O)([O-])[O-])[C@H]1OCCCCCO.[Na+].[Na+].[Na+].[Na+].[Na+].[Na+].[Na+].[Na+] [Compound 6, 4,6-O-bis(5-hydroxypentyl)-myo-inositol-1,2,3,5-tetrakis(phosphate) octasodium salt]
BP recovery (%) [2]: Over (Average blood perfusion recovery over or under 25%.) | Inhibition of calcification (%) Aorta [3]: Over (Average inhibition percentage over or under 25% inhibition of calcification.) | Inhibition of calcification (%) Carotid [3]: Under (Average inhibition percentage over or under 25% inhibition of calcification.) | Inhibition of calcification (%) Femoral [3]: Over (Average inhibition percentage over or under 25% inhibition of calcification.) | Inhibition of calcification (%) Heart [3]: Over (Average inhibition percentage over or under 25% inhibition of calcification.) | Inhibition of calcification (%) Kidney [3]: Over (Average inhibition percentage over or under 25% inhibition of calcification.)

EC50 [1]: ≤ 5 µM
Compound: O=C([O-])CCCCCO[C@@H]1[C@@H](OP(=O)([O-])[O-])[C@H](OCCCCCC(=O)[O-])[C@@H](OP(=O)([O-])[O-])[C@@H](OP(=O)([O-])[O-])[C@H]1OP(=O)([O-])[O-].[Na+].[Na+].[Na+].[Na+].[Na+].[Na+].[Na+].[Na+].[Na+].[Na+] [Compound 18, 4,6-O-bis(5-carboxypentyl)-myo-inositol-1,2,3,5-tetrakis(phosphate) decasodium salt]
BP recovery (%) [2]: Over (Average blood perfusion recovery over or under 25%.) | Inhibition of calcification (%) Aorta [3]: Under (Average inhibition percentage over or under 25% inhibition of calcification.) | Inhibition of calcification (%) Carotid [3]: Under (Average inhibition percentage over or under 25% inhibition of calcification.) | Inhibition of calcification (%) Femoral [3]: Under (Average inhibition percentage over or under 25% inhibition of calcification.) | Inhibition of calcification (%) Heart [3]: Over (Average inhibition percentage over or under 25% inhibition of calcification.) | Inhibition of calcification (%) Kidney [3]: Over (Average inhibition percentage over or under 25% inhibition of calcification.)
